From patent US20230398102A1 (Bausch Health Ireland Limited, priority 2020, published 2023)

Key:
Type in all cases: physicochemical
[1] = Excipient compatibility: rifaximin solutions stored at various temperatures, chemical purity by HPLC; conditions: rifaximin in named solvent
[2] = Compatibility of individual excipients with hard gelatin capsule shells; conditions: Hard Gel Capsules
Method: (§1) The physical compatibility of individual excipients with gelatin shell matrix was investigated. For hard gelatin capsules, solvent was filled into hard capsules and placed in scintillation vials. For soft gelatin capsules, each capsule was dipped into the excipient and then placed in scintillation vials. The vials were then subjected to various temperature conditions for up to 4 weeks. Capsules were then evaluated for physical changes (softening or hardening of capsule shell).
(§2) Hard gel capsules were purchased from VWR (catalogue number 70102) with a volume of 0.68 mL, diameter of 6.63 mm, a length of 19.0 mm and size 1. Soft gel capsules were Advil liquid-gels, 200 mg strength, 80 counts.

[3] = Compatibility of individual excipients with soft gelatin capsule shells; conditions: Soft Gel Capsules
Method: as §1, §2

With `CC(O)CO` (stereo not shown) [Propylene glycol] the “Rifaximin % Label Claim (LC)” value ([1]; T0) was 97.9 % Label Claim (LC), the “Rifaximin % Label Claim (LC)” value ([1]; T 2 weeks, 25° C.) was 96.9 % Label Claim (LC) and the “Rifaximin % Label Claim (LC)” value ([1]; T 2 weeks, 40° C.) was 97.0 % Label Claim (LC). The “Rifaximin % Label Claim (LC)” value ([1]; T 2 weeks, 50° C.) was 95.7 % Label Claim (LC), the “Rifaximin % Label Claim (LC)” value ([1]; T 4 weeks, 25° C.) was 96.2 % Label Claim (LC) and the “Rifaximin % Label Claim (LC)” value ([1]; T 4 weeks, 40° C.) was 95.6 % Label Claim (LC). For the same molecule, the “Rifaximin % Label Claim (LC)” value ([1]; T 4 weeks, 50° C.) was 98.6 % Label Claim (LC).
In the case of `CCOCCOCCO` [Diethylene glycol monoethyl ether], the “Physical change (Yes or No)” value ([2]; T 2 weeks, 25° C.) is reported as “No”, the “Physical change (Yes or No)” value ([2]; T 2 weeks, 40° C.) is reported as “No” and the “Physical change (Yes or No)” value ([2]; T 2 weeks, 50° C.) is reported as “No”. The “Physical change (Yes or No)” value ([2]; T 4 weeks, 25° C.) was “No”, the “Physical change (Yes or No)” value ([2]; T 4 weeks, 40° C.) was “No” and the “Physical change (Yes or No)” value ([2]; T 4 weeks, 50° C.) was “No”.
With `CCCCCCCC/C=C\CCCCCCCC(=O)OCC(O)CO` (stereo not shown) [Glyceryl monooleate (Type 40), Glyceryl monooleate] the “Physical change (Yes or No)” value ([2]; T 2 weeks, 25° C.) was “No”, the “Physical change (Yes or No)” value ([2]; T 2 weeks, 40° C.) was “No” and the “Physical change (Yes or No)” value ([2]; T 2 weeks, 50° C.) was “No”. The “Physical change (Yes or No)” value ([2]; T 4 weeks, 25° C.) was “No”, the “Physical change (Yes or No)” value ([2]; T 4 weeks, 40° C.) was “No” and the “Physical change (Yes or No)” value ([2]; T 4 weeks, 50° C.) was “No”. The “Physical change (Yes or No)” value ([3]; T 2 weeks, 25° C.) was “No”, the “Physical change (Yes or No)” value ([3]; T 2 weeks, 40° C.) was “Yes” and the “Physical change (Yes or No)” value ([3]; T 2 weeks, 50° C.) was “Yes”. For the same molecule, the “Physical change (Yes or No)” value ([3]; T 4 weeks, 25° C.) was “No”, the “Physical change (Yes or No)” value ([3]; T 4 weeks, 40° C.) was “Yes” and the “Physical change (Yes or No)” value ([3]; T 4 weeks, 50° C.) was “Yes”. For the same molecule, the “Rifaximin % Label Claim (LC)” value ([1]; T0) was 92.7 % Label Claim (LC), the “Rifaximin % Label Claim (LC)” value ([1]; T 2 weeks, 25° C.) was 96.4 % Label Claim (LC) and the “Rifaximin % Label Claim (LC)” value ([1]; T 2 weeks, 40° C.) was 58.3 % Label Claim (LC). The “Rifaximin % Label Claim (LC)” value ([1]; T 2 weeks, 50° C.) was 48.9 % Label Claim (LC), the “Rifaximin % Label Claim (LC)” value ([1]; T 4 weeks, 25° C.) was 95.0 % Label Claim (LC) and the “Rifaximin % Label Claim (LC)” value ([1]; T 4 weeks, 40° C.) was 59.0 % Label Claim (LC). The “Rifaximin % Label Claim (LC)” value ([1]; T 4 weeks, 50° C.) was 41.7 % Label Claim (LC).
For `CCOC(=O)CCCCCCCCC(=O)OCC` [Diethyl sebacate], the “Physical change (Yes or No)” value ([2]; T 2 weeks, 25° C.) was “No”, the “Physical change (Yes or No)” value ([2]; T 2 weeks, 40° C.) was “No” and the “Physical change (Yes or No)” value ([2]; T 4 weeks, 25° C.) was “No”. The “Physical change (Yes or No)” value ([2]; T 4 weeks, 40° C.) was “No”, the “Rifaximin % Label Claim (LC)” value ([1]; T0) was 102.7 % Label Claim (LC) and the “Rifaximin % Label Claim (LC)” value ([1]; T 2 weeks, 25° C.) was 102.1 % Label Claim (LC). For the same molecule, the “Rifaximin % Label Claim (LC)” value ([1]; T 2 weeks, 40° C.) was 101.7 % Label Claim (LC), the “Rifaximin % Label Claim (LC)” value ([1]; T 2 weeks, 50° C.) was 101.7 % Label Claim (LC) and the “Rifaximin % Label Claim (LC)” value ([1]; T 4 weeks, 25° C.) was 101.1 % Label Claim (LC). For the same molecule, the “Rifaximin % Label Claim (LC)” value ([1]; T 4 weeks, 40° C.) was 98.8 % Label Claim (LC) and the “Rifaximin % Label Claim (LC)” value ([1]; T 4 weeks, 50° C.) was 99.8 % Label Claim (LC).
For `OCc1ccccc1` [Benzyl alcohol], the “Physical change (Yes or No)” value ([2]; T 2 weeks, 25° C.) was “Yes”, the “Physical change (Yes or No)” value ([2]; T 2 weeks, 40° C.) was “Yes” and the “Physical change (Yes or No)” value ([2]; T 4 weeks, 25° C.) was “Yes”. The “Physical change (Yes or No)” value ([2]; T 4 weeks, 40° C.) was “Yes”, the “Rifaximin % Label Claim (LC)” value ([1]; T0) was 99.3 % Label Claim (LC) and the “Rifaximin % Label Claim (LC)” value ([1]; T 2 weeks, 25° C.) was 99.8 % Label Claim (LC). For the same molecule, the “Rifaximin % Label Claim (LC)” value ([1]; T 2 weeks, 40° C.) was 96.3 % Label Claim (LC), the “Rifaximin % Label Claim (LC)” value ([1]; T 2 weeks, 50° C.) was 96.9 % Label Claim (LC) and the “Rifaximin % Label Claim (LC)” value ([1]; T 4 weeks, 25° C.) was 98.2 % Label Claim (LC). The “Rifaximin % Label Claim (LC)” value ([1]; T 4 weeks, 40° C.) was 94.0 % Label Claim (LC) and the “Rifaximin % Label Claim (LC)” value ([1]; T 4 weeks, 50° C.) was 93.0 % Label Claim (LC).
For `CCCCC/C=C\C/C=C\CCCCCCCC(=O)OCC(O)CO` (stereo not shown) [Glyceryl monolinoleate], the “Physical change (Yes or No)” value ([2]; T 2 weeks, 25° C.) was “No”, the “Physical change (Yes or No)” value ([2]; T 2 weeks, 40° C.) was “No” and the “Physical change (Yes or No)” value ([2]; T 2 weeks, 50° C.) was “No”. The “Physical change (Yes or No)” value ([2]; T 4 weeks, 25° C.) was “No”, the “Physical change (Yes or No)” value ([2]; T 4 weeks, 40° C.) was “No” and the “Physical change (Yes or No)” value ([2]; T 4 weeks, 50° C.) was “No”. For the same molecule, the “Physical change (Yes or No)” value ([3]; T 2 weeks, 25° C.) was “No”, the “Physical change (Yes or No)” value ([3]; T 2 weeks, 40° C.) was “No” and the “Physical change (Yes or No)” value ([3]; T 2 weeks, 50° C.) was “No”. The “Physical change (Yes or No)” value ([3]; T 4 weeks, 25° C.) was “No”, the “Physical change (Yes or No)” value ([3]; T 4 weeks, 40° C.) was “No” and the “Physical change (Yes or No)” value ([3]; T 4 weeks, 50° C.) was “No”. The “Rifaximin % Label Claim (LC)” value ([1]; T0) was 102.7 % Label Claim (LC), the “Rifaximin % Label Claim (LC)” value ([1]; T 2 weeks, 25° C.) was 98.7 % Label Claim (LC) and the “Rifaximin % Label Claim (LC)” value ([1]; T 2 weeks, 40° C.) was 100.0 % Label Claim (LC). The “Rifaximin % Label Claim (LC)” value ([1]; T 2 weeks, 50° C.) was 97.4 % Label Claim (LC), the “Rifaximin % Label Claim (LC)” value ([1]; T 4 weeks, 25° C.) was 100.6 % Label Claim (LC) and the “Rifaximin % Label Claim (LC)” value ([1]; T 4 weeks, 40° C.) was 100.0 % Label Claim (LC). The “Rifaximin % Label Claim (LC)” value ([1]; T 4 weeks, 50° C.) was 92.9 % Label Claim (LC).
In the case of `CCOCCOCCO` [diethylene glycol monoethyl ether], the “Rifaximin % Label Claim (LC)” value ([1]; T0) is reported as 97.3 % Label Claim (LC), the “Rifaximin % Label Claim (LC)” value ([1]; T 2 weeks, 25° C.) is reported as 96.1 % Label Claim (LC) and the “Rifaximin % Label Claim (LC)” value ([1]; T 2 weeks, 40° C.) is reported as 89.3 % Label Claim (LC). For the same molecule, the “Rifaximin % Label Claim (LC)” value ([1]; T 2 weeks, 50° C.) was 81.5 % Label Claim (LC), the “Rifaximin % Label Claim (LC)” value ([1]; T 4 weeks, 25° C.) was 95.4 % Label Claim (LC) and the “Rifaximin % Label Claim (LC)” value ([1]; T 4 weeks, 40° C.) was 82.7 % Label Claim (LC). The “Rifaximin % Label Claim (LC)” value ([1]; T 4 weeks, 50° C.) was 74.2 % Label Claim (LC).
In the case of `CC(C)OC(=O)CCCCC(=O)OC(C)C` [Diisopropyl adipate], the “Rifaximin % Label Claim (LC)” value ([1]; T0) is reported as 97.6 % Label Claim (LC), the “Rifaximin % Label Claim (LC)” value ([1]; T 2 weeks, 25° C.) is reported as 95.3 % Label Claim (LC) and the “Rifaximin % Label Claim (LC)” value ([1]; T 2 weeks, 40° C.) is reported as 71.3 % Label Claim (LC). For the same molecule, the “Rifaximin % Label Claim (LC)” value ([1]; T 2 weeks, 50° C.) was 50.3 % Label Claim (LC), the “Rifaximin % Label Claim (LC)” value ([1]; T 4 weeks, 25° C.) was 95.1 % Label Claim (LC) and the “Rifaximin % Label Claim (LC)” value ([1]; T 4 weeks, 40° C.) was 64.8 % Label Claim (LC). For the same molecule, the “Rifaximin % Label Claim (LC)” value ([1]; T 4 weeks, 50° C.) was 30.4 % Label Claim (LC).
For `CCCCCCCC/C=C\CCCCCCCCO` [Oleyl alcohol], the “Physical change (Yes or No)” value ([2]; T 2 weeks, 25° C.) was “No”, the “Physical change (Yes or No)” value ([2]; T 2 weeks, 40° C.) was “No” and the “Physical change (Yes or No)” value ([2]; T 4 weeks, 25° C.) was “No”. For the same molecule, the “Physical change (Yes or No)” value ([2]; T 4 weeks, 40° C.) was “No”, the “Rifaximin % Label Claim (LC)” value ([1]; T0) was 98.7 % Label Claim (LC) and the “Rifaximin % Label Claim (LC)” value ([1]; T 2 weeks, 25° C.) was 96.3 % Label Claim (LC). For the same molecule, the “Rifaximin % Label Claim (LC)” value ([1]; T 2 weeks, 40° C.) was 97.1 % Label Claim (LC), the “Rifaximin % Label Claim (LC)” value ([1]; T 2 weeks, 50° C.) was 95.2 % Label Claim (LC) and the “Rifaximin % Label Claim (LC)” value ([1]; T 4 weeks, 25° C.) was 96.9 % Label Claim (LC). For the same molecule, the “Rifaximin % Label Claim (LC)” value ([1]; T 4 weeks, 40° C.) was 95.0 % Label Claim (LC) and the “Rifaximin % Label Claim (LC)” value ([1]; T 4 weeks, 50° C.) was 91.8 % Label Claim (LC).
For `OCCOCCOCCO` [Triethylene glycol], the “Physical change (Yes or No)” value ([2]; T 2 weeks, 25° C.) was “Yes”, the “Physical change (Yes or No)” value ([2]; T 2 weeks, 40° C.) was “Yes” and the “Physical change (Yes or No)” value ([2]; T 4 weeks, 25° C.) was “Yes”. For the same molecule, the “Physical change (Yes or No)” value ([2]; T 4 weeks, 40° C.) was “Yes”, the “Rifaximin % Label Claim (LC)” value ([1]; T0) was 97.5 % Label Claim (LC) and the “Rifaximin % Label Claim (LC)” value ([1]; T 2 weeks, 25° C.) was 98.3 % Label Claim (LC). The “Rifaximin % Label Claim (LC)” value ([1]; T 2 weeks, 40° C.) was 96.7 % Label Claim (LC), the “Rifaximin % Label Claim (LC)” value ([1]; T 2 weeks, 50° C.) was 95.6 % Label Claim (LC) and the “Rifaximin % Label Claim (LC)” value ([1]; T 4 weeks, 25° C.) was 97.0 % Label Claim (LC). The “Rifaximin % Label Claim (LC)” value ([1]; T 4 weeks, 40° C.) was 95.0 % Label Claim (LC) and the “Rifaximin % Label Claim (LC)” value ([1]; T 4 weeks, 50° C.) was 92.5 % Label Claim (LC).
